Reference: patent publication US9649313B2, “Use of ITK inhibitors for the treatment of cancer” (The University of North Carolina at Chapel Hill, priority 2012, dated 2017)

Key:
Test in all cases: cell-free kinase assay
Format in all cases: biochemical
[1] = biological target: T1, FGR (Homo sapiens, UniProt P09769); conditions: ATP concentration at approximately the Km for ATP
T1 construct: purchased Carna Biosciences
From the text: (§1) We investigated the potency and selectivity of BI 10N against 56 kinases using a cell-free assay (Table 8A).
(§2) The selectivity of this inhibitor was investigated by testing the potency of the inhibitor at two concentrations with 53 kinases by Carna Biosciences (MA) (Table 2).

[2] = biological target: T2, GSK3β (Homo sapiens, UniProt P49841); conditions: single inhibitor concentration
T2 construct: purchased Carna Biosciences
From the text: as §1, §2

[3] = biological target: T3, NEK2 (Homo sapiens, UniProt P51955); conditions: single inhibitor concentration
T3 construct: purchased Carna Biosciences
From the text: as §1, §2

[4] = biological target: T4, PAK2 (Homo sapiens, UniProt Q13177); conditions: single inhibitor concentration
T4 construct: purchased Carna Biosciences
From the text: as §1, §2

[5] = biological target: T5, PKD2 (Homo sapiens, UniProt Q9BZL6); conditions: single inhibitor concentration
T5 construct: purchased Carna Biosciences
From the text: as §1, §2

[6] = biological target: T6, SRC (Homo sapiens, UniProt P12931)
T6 construct: purchased Carna Biosciences
From the text: as §1, §2

[7] = biological target: T7, PDK1 (Homo sapiens, UniProt O15530); conditions: single inhibitor concentration
T7 construct: purchased Carna Biosciences
From the text: as §1, §2

[8] = biological target: T8, SGK (Homo sapiens, UniProt O00141); conditions: single inhibitor concentration
T8 construct: purchased Carna Biosciences
From the text: as §1, §2

[9] = biological target: T9, Erk2 (Homo sapiens, UniProt P28482); conditions: single inhibitor concentration
T9 construct: purchased Carna Biosciences
From the text: as §1, §2

[10] = biological target: T10, EPHB4 (Homo sapiens, UniProt P54760); conditions: single inhibitor concentration
T10 construct: purchased Carna Biosciences
From the text: as §1, §2

[11] = biological target: T11, CaMK4 (Homo sapiens, UniProt Q16566); conditions: single inhibitor concentration
T11 construct: purchased Carna Biosciences
From the text: as §1, §2

[12] = biological target: T12, JNK2 (Homo sapiens, UniProt P45984); conditions: single inhibitor concentration
T12 construct: purchased Carna Biosciences
From the text: as §1, §2

[13] = biological target: T13, CSK (Homo sapiens, UniProt P41240); conditions: single inhibitor concentration
T13 construct: purchased Carna Biosciences
From the text: as §1, §2

[14] = biological target: T14, JAK3 (Homo sapiens, UniProt P52333); conditions: single inhibitor concentration
T14 construct: purchased Carna Biosciences
From the text: as §1, §2

[15] = biological target: T15, MET (Homo sapiens, UniProt P08581); conditions: single inhibitor concentration
T15 construct: purchased Carna Biosciences
From the text: as §1, §2

[16] = biological target: T16, KDR (Homo sapiens, UniProt P35968); conditions: single inhibitor concentration
T16 construct: purchased Carna Biosciences
From the text: as §1, §2

[17] = biological target: T17, TIE2 (Homo sapiens, UniProt Q02763); conditions: single inhibitor concentration
T17 construct: purchased Carna Biosciences
From the text: as §1, §2

[18] = biological target: T18, TSSK1 (Homo sapiens, UniProt Q9BXA7)
T18 construct: purchased Carna Biosciences
From the text: as §1, §2

[19] = biological target: T19, BLK (Homo sapiens, UniProt P51451); conditions: ATP concentration at approximately the Km for ATP
T19 construct: purchased Carna Biosciences
From the text: as §1, §2

[20] = biological target: T20, PIM1 (Homo sapiens, UniProt P11309); conditions: single inhibitor concentration
T20 construct: purchased Carna Biosciences
From the text: as §1, §2

[21] = biological target: T21, LYNb (Homo sapiens, UniProt P07948); conditions: ATP concentration at approximately the Km for ATP
T21 construct: purchased Carna Biosciences
From the text: as §1, §2

[22] = biological target: T22, PYK2 (Homo sapiens, UniProt Q14289); conditions: single inhibitor concentration
T22 construct: purchased Carna Biosciences
From the text: as §1, §2

[23] = biological target: T23, ROCK1 (Homo sapiens, UniProt Q13464); conditions: single inhibitor concentration
T23 construct: purchased Carna Biosciences
From the text: as §1, §2

[24] = biological target: T24, TRKB (Homo sapiens, UniProt Q16620)
T24 construct: purchased Carna Biosciences
From the text: as §1, §2

[25] = biological target: T25, DAPK1 (Homo sapiens, UniProt P53355); conditions: single inhibitor concentration
T25 construct: purchased Carna Biosciences
From the text: as §1, §2

[26] = biological target: T26, HGK (Homo sapiens, UniProt O95819)
T26 construct: purchased Carna Biosciences
From the text: as §1, §2

[27] = biological target: T27, MST1 (Homo sapiens, UniProt Q13043)
T27 construct: purchased Carna Biosciences
T27 sequence (Q13043 1-487): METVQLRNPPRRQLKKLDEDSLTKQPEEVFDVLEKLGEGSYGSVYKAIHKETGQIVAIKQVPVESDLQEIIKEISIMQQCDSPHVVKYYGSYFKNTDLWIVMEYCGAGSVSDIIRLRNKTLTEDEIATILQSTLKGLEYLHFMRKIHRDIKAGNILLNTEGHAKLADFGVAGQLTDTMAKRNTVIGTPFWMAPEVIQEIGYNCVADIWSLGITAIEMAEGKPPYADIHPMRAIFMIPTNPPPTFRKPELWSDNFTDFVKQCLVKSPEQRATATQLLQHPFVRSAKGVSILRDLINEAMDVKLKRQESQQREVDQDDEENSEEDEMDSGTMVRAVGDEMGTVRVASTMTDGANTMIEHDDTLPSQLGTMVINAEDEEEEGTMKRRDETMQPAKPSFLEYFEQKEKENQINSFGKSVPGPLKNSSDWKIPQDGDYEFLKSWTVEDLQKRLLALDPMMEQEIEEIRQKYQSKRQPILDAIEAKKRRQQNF
From the text: as §1, §2

[28] = biological target: T28, DYRK1B (Homo sapiens, UniProt Q9Y463); conditions: single inhibitor concentration
T28 construct: purchased Carna Biosciences
From the text: as §1, §2

[29] = biological target: T29, PKACα (Homo sapiens, UniProt P17612); conditions: single inhibitor concentration
T29 construct: purchased Carna Biosciences
From the text: as §1, §2

[30] = biological target: T30, MAPKAPK2 (Homo sapiens, UniProt P49137); conditions: single inhibitor concentration
T30 construct: purchased Carna Biosciences
From the text: as §1, §2

T24 sequence (Q16620 32-822): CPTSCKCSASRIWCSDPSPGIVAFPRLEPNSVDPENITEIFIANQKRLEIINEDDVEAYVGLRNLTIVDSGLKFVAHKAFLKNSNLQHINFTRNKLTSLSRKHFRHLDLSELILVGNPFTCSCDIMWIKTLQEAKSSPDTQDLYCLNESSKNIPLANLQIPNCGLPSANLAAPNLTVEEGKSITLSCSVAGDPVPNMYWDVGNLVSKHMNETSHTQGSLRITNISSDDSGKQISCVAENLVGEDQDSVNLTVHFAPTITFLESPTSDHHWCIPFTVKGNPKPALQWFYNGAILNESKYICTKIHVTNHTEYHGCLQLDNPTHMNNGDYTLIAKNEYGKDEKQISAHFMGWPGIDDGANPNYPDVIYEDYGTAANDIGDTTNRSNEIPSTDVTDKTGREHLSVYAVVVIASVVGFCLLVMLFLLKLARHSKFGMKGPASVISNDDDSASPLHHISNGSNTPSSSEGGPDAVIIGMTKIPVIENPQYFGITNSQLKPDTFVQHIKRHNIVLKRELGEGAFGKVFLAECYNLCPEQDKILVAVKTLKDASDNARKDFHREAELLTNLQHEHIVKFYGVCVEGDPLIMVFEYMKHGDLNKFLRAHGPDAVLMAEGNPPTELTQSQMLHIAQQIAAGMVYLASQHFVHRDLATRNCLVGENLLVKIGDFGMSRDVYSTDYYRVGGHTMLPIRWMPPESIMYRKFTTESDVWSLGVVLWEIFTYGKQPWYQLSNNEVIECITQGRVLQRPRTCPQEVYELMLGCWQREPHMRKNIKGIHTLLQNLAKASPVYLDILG
T6 sequence (P12931 whole entry): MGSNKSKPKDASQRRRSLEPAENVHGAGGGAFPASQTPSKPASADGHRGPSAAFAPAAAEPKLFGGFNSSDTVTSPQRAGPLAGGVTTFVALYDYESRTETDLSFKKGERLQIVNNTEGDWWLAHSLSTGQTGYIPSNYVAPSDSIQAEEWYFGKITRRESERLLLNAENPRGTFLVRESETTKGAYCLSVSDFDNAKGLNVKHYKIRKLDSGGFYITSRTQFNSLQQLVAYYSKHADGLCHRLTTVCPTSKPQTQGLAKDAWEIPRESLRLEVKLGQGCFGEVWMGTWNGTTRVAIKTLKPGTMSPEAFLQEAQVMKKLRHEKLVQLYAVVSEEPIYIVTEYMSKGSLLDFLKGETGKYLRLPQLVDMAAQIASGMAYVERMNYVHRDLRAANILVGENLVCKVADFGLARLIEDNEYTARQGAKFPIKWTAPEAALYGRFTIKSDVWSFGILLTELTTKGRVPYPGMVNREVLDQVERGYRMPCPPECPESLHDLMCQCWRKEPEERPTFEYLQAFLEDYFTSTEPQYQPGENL
T18 sequence (Q9BXA7 whole entry): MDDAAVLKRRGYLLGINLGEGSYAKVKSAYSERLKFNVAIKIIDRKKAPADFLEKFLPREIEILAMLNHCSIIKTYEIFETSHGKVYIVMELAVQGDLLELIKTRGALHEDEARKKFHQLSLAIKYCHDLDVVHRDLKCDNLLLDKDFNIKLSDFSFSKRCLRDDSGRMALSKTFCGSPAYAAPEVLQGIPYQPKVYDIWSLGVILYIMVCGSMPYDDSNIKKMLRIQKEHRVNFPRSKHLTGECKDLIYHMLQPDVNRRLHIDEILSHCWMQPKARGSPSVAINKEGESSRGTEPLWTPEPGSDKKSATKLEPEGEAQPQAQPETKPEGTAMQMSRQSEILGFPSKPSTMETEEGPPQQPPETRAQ
T26 sequence (O95819 whole entry): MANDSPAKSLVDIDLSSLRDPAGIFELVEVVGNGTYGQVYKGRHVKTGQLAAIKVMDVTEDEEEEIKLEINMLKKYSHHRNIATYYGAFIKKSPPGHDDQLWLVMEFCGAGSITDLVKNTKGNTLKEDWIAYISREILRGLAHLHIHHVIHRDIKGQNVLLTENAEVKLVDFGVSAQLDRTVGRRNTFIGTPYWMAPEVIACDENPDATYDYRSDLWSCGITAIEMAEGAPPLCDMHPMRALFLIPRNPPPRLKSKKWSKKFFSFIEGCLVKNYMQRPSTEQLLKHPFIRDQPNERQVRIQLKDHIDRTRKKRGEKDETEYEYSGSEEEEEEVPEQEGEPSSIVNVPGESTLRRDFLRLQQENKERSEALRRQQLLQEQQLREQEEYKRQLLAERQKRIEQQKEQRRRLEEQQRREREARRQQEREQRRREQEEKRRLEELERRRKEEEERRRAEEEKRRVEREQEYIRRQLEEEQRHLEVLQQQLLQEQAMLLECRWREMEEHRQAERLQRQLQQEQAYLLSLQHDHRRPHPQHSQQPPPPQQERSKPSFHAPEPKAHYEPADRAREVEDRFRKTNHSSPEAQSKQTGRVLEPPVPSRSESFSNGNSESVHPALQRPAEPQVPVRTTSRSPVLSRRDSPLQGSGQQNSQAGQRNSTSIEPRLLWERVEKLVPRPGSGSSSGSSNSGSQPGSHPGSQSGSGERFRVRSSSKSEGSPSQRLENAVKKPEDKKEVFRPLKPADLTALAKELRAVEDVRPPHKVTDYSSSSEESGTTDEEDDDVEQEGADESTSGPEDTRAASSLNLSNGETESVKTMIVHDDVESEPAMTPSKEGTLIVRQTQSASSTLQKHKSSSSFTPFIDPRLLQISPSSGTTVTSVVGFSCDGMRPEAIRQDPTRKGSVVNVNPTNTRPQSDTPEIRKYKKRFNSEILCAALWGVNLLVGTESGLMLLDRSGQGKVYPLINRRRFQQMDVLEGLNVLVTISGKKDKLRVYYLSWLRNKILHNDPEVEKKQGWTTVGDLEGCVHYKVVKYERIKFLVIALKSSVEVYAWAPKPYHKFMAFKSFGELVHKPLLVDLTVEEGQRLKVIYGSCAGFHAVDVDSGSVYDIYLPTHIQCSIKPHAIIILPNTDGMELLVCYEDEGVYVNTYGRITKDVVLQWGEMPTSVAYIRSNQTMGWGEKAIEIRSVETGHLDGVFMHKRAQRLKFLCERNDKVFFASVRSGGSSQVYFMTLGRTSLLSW
T8 sequence (O00141 whole entry): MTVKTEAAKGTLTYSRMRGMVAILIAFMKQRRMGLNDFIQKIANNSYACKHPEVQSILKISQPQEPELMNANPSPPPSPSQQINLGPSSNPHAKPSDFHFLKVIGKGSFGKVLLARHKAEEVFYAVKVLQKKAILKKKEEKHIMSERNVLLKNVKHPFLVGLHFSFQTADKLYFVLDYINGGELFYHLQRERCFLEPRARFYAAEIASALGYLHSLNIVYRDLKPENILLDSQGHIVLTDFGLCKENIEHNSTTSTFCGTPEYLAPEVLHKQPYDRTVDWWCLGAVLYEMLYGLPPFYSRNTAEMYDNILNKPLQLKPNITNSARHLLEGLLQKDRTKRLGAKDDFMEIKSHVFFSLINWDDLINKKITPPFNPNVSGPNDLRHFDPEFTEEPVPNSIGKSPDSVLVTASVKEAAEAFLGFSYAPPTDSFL
T25 sequence (P53355 whole entry): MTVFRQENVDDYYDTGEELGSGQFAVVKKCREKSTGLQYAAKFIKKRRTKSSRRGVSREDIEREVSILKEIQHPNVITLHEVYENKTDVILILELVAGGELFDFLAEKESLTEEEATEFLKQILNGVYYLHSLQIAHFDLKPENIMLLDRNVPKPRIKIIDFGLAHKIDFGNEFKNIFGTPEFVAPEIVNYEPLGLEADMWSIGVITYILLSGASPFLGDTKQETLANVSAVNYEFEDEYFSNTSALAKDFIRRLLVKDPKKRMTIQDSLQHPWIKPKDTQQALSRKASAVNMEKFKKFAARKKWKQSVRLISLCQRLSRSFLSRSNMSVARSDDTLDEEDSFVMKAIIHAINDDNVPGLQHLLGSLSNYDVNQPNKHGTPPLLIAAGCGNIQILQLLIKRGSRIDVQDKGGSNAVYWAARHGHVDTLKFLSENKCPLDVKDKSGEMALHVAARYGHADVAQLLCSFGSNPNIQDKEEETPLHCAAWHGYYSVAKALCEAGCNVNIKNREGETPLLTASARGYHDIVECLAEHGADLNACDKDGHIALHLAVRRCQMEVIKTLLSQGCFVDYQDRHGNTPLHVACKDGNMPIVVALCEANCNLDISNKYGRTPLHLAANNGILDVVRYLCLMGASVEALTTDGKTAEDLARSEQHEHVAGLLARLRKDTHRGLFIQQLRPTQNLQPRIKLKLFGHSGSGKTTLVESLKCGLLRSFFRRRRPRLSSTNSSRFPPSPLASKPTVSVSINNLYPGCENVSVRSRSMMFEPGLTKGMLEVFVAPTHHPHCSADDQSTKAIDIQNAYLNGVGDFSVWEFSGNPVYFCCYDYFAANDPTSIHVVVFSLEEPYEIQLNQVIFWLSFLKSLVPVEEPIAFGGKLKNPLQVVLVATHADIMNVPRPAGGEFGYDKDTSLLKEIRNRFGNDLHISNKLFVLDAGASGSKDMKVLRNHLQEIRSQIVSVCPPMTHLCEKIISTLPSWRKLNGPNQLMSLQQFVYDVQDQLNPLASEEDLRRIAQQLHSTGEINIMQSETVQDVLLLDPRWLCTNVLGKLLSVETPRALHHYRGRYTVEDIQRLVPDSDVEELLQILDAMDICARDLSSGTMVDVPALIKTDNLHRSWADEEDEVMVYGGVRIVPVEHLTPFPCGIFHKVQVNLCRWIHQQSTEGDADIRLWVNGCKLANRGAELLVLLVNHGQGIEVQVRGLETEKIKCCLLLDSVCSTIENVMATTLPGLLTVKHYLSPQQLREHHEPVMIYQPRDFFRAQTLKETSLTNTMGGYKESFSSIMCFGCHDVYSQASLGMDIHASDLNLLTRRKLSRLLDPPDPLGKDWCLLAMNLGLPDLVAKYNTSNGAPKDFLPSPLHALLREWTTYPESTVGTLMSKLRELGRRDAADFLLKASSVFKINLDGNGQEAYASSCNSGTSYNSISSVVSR

SMILES: CC(C)C(C)CNCc1ccc2c(c1)[nH]/c(=N\C(=O)c1ccc(C3=CN=NC3)s1)n2CC(C)(C)O (centres unmarked) [BI 10N]
- IC50 [1]: 2.89 nM
- inhibition at 0.2 µM [2]: 31.5%
- inhibition at 0.2 µM [3]: 0.3%
- inhibition at 0.2 µM [4]: 4.5%
- inhibition at 0.2 µM [5]: 7%
- IC50 ([6]; Table 2, by Carna Biosciences): 3.76 nM
- inhibition at 0.2 µM ([6]; single inhibitor concentration): 99.9%
- inhibition at 0.2 µM [7]: 1.5%
- inhibition at 0.2 µM [8]: 1.4%
- inhibition at 0.2 µM [9]: -1.5%
- inhibition at 0.2 µM [10]: 52.1%
- inhibition at 0.2 µM [11]: -4.3%
- inhibition at 0.2 µM [12]: -0.1%
- inhibition at 0.2 µM [13]: 32.4%
- inhibition at 0.2 µM [14]: 75%
- inhibition at 0.2 µM [15]: 4.1%
- inhibition at 0.2 µM [16]: 79.3%
- inhibition at 0.2 µM [17]: 8.2%
- IC50 ([18]; Table 2, by Carna Biosciences): 28.6 nM
- inhibition at 0.2 µM ([18]; single inhibitor concentration): 88.9%
- IC50 [19]: 52.2 nM
- inhibition at 0.2 µM [20]: 10.4%
- IC50 [21]: 43 nM
- inhibition at 0.2 µM [22]: 35.1%
- inhibition at 0.2 µM [23]: 33%
- IC50 [24]: 1.28 nM
- selectivity for ITK over TRKB [24]: about 10 fold
- inhibition at 0.2 µM [25]: 5.5%
- IC50 ([26]; Table 2, by Carna Biosciences): 12.1 nM
- inhibition at 0.2 µM ([26]; single inhibitor concentration): 100%
- IC50 ([27]; Table 2, by Carna Biosciences): 26 nM
- inhibition at 0.2 µM ([27]; single inhibitor concentration): 91.7%
- inhibition at 0.2 µM [28]: 79.6%
- inhibition at 0.2 µM [29]: 2.5%
- inhibition at 0.2 µM [30]: -5.2%
